The text below walks through data of PMC4585029, “Agonist and antagonist effects of tobacco-related nitrosamines on human α4β2 nicotinic acetylcholine receptors” (Frontiers in Pharmacology, 2015).

Each structure is given as a SMILES string. Entries after “also recorded” stand apart in the source; their conditions may differ. Read-outs that look alike come from different tables or passages of the source.

For data set [1], the system named is (α7)5 nAChR. The arrangement: method as in Dani and Bertrand, [2007]. As to conditions: homopentameric receptors such as (α7)5; ref Dani and Bertrand, [2007]; cited from earlier work.
In data set [2] the test system is epibatidine-sensitive nAChRs. The arrangement: method as in Schuller, [2007]. As to conditions: SCLC cells, ref Schuller, [2007], read-out: EC50 measured in binding studies; cited from earlier work.
Data set [3] addresses T1, human α4β2 nAChRs (Homo sapiens, UniProt P17787+P43681).
T1 construct: expressed in transfected cells
The data set is described as follows: cell-based. Format: cell-based. The conditions noted are these: for voltage dependence of the fractional block at the steady state: NNN 10 μM with 10 μM nicotine, NNK 1 μM with 100 nM nicotine, different Vm; for Imax/Inico: maximal current relative to nicotine, whole-cell; for functional behaviour on α4β2 nAChRs: patch-clamp. The procedure:
HEK 293 cells stably expressing human α4β2 nAChRs were cultured by standard methods (Di Resta et al., [2010]). In brief, cultures were maintained in Dulbecco's modified Eagle's medium (Hyclone Laboratories), supplemented with 10% fetal calf serum (Hyclone), 4.5 g/l glutamine, […] hygromycin β, and 0.25 μg/ml amphoterycin B. Cells were grown at 37°C and 5% CO2. For patch-clamp experiments, cells were harvested by treatment with trypsin and plated onto 35 mm Petri dishes (Corning Inc.).
Cells were voltage-clamped by using the whole-cell configuration of the patch-clamp method. Currents were registered with an Axopatch 200B amplifier (Molecular Devices), at room temperature (20–22°C). Micropipettes (3–4 MΩ) were pulled from borosilicate capillaries (GMBH) with a P-97 Flaming/Brown Micropipette Puller (Sutter Instrument Co.). The cell capacitance and series resistance (up to about 75%) were always compensated. Currents were low-pass filtered at 2 kHz and acquired on-line at 5–10 kHz with Molecular Devices hardware and software (pClamp 8 and Axoscope 8). After patch rupture, we usually allowed 1–2 min for pipette solution exchange and signal stabilization, before applying our stimuli. Extracellular solutions were applied with an RSC-160 Rapid Solution Changer (BioLogic Science Instruments). The solution is delivered to the cells through borosilicate capillaries connected to Tygon tubes. Seven independent lines are available. […] The perfusing line was totally substituted whenever the drug was changed.
Unless otherwise indicated, chemicals, and drugs were purchased by Sigma-Aldrich Italia Srl. The extracellular solution contained (mM): NaCl 130, KCl 5, CaCl2 2, MgCl2 2, HEPES 10, D-glucose 5 (pH 7.4; adjusted with NaOH). Pipettes contained (mM): K-aspartate 120, NaCl 10, MgCl2 2, CaCl21.3, EGTA-KOH 10, HEPES 10, MgATP 1, (pH 7.3; adjusted with KOH). […] NNK and NNN (20 mM) were dissolved in water and kept refrigerated for no longer than 1 week. […] The final concentrations were obtained by serial dilution.
Data were analyzed with Clampfit 9.2 (Molecular Devices) and OriginPro 9 (OriginLab Co.). Theoretical curves best fitting the data were determined by a nonlinear least-squares method (Levenberg-Marquardt algorithm). For nAChR activation we used both a simple Hill function and the sum of two Hill expressions (Covernton and Connolly, [2000]). The single-term expression was:
The two-terms Hill expression was:
(2) IL/Imax=A/(1+EC50high/[L])^nH1+1-A/(1+EC50low/[L])^nH2
where A is the fraction of receptors in the high-affinity state; EC50high and EC50low are the EC50 values of the components at high and low affinity, respectively; nH1 and nH2 are the corresponding Hill coefficients, and the other symbols are as in Equation (1).
The function used to fit the desensitization data points (Figure 3) was:
(3) ISS/Ipeak=B+1-B/(1+[L]/IC50)^nH
ISS was found by fitting the current decay with a single exponential function and taking the steady state value of this function. A similar function was used to fit the fractional inhibition in Figures 4B, 5B.
(4) y=αNic[Nic]/EC50+αNNK[NNK]/EC50(NNK)/1+[Nic]/EC50+[NNK]/EC50(NNK)

The test system of data set [4] is α3β4 nAChR. Set-up: method as in Nunes-Alves et al., [2012]. The conditions noted are these: in the presence of 100 μM nicotine; ref Nunes-Alves et al., [2012]; cited from earlier work.
The test system of data set [5] is muscle subtype nAChR. Set-up: method as in Nunes-Alves et al., [2012]. The conditions noted are these: ref Nunes-Alves et al., [2012]; cited from earlier work.
For data set [6] the following is noted: cited from earlier work.
Where [7] appears, read: two-terms Hill fit (Equation 2).

T1 sequence (P43681 29-627 limits assumed): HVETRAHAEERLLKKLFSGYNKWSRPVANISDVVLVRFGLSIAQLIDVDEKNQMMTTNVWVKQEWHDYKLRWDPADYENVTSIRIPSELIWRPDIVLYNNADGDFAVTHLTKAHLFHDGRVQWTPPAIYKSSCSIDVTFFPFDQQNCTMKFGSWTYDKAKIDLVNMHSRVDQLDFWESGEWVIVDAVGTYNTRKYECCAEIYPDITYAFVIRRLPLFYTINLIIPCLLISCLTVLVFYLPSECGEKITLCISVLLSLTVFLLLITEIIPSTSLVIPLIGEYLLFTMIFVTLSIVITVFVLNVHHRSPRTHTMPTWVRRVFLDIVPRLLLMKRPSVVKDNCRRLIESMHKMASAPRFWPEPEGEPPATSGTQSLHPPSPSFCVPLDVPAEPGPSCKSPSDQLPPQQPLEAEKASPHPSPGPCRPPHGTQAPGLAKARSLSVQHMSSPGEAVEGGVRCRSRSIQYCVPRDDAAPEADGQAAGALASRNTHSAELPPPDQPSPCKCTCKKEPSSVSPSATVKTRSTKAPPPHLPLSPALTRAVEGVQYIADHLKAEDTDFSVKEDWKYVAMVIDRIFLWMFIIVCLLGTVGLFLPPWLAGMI
T1 sequence (P17787 26-502): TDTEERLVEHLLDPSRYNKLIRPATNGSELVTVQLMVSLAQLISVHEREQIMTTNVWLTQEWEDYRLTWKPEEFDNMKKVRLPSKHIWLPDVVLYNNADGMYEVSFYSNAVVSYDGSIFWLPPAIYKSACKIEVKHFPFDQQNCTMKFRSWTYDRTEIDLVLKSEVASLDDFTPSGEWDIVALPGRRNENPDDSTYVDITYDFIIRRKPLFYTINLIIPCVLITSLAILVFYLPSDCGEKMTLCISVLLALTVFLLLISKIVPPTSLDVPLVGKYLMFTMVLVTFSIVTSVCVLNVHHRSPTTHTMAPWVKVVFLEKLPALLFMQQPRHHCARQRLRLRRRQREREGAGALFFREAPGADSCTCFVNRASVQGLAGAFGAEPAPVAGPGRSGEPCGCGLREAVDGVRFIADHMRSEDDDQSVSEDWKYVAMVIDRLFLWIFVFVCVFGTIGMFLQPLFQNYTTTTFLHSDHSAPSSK

`CC(=O)OCC[N+](C)(C)C` [ACh]: the EC50 in data set [1] was […].
For the compound `CN(CCCC(=O)c1cccnc1)N=O` [NNK, 4-(methylnitrosamine)-1-(3-pyridyl)-1-butanone], the EC50 in data set [2] was roughly 17 µM; in data set [3] (read-out: EC50 (single-term Hill, Equation 1), peak whole-cell currents at −80 mV, activation by agonist alone), 16.7 µM; in data set [3] (read-out: EC50high, high-affinity component, two-terms Hill fit (Equation 2)), 0.035 µM; in data set [3] (read-out: EC50low, low-affinity component, two-terms Hill fit (Equation 2)), 12.8 µM. For the same compound, in data set [3] (10 nM nicotine plus 1 μM NNK, n = 11), the peak current was 160 ± 30 pA. Further, the average current in data set [3] (100 nM nicotine plus 100 μM NNK, n = 8) stood at 159.1 ± 25.1 pA. Besides, the “potentiation of the current activated by nicotine” value in data set [3] (1 μM NNK on 0.01 μM nicotine) was 26%; in data set [3] (100 μM NNK on 100 nM (0.1 μM) nicotine, −80 mV), “approximately 80%”. Further, the “concentration of nicotine at which NNK reversed its effect” value in data set [3] (1 μM NNK, estimated by fit with Equation 4) is “around 20 nM”. The “average peak current density” value in data set [3] (10 μM NNK alone, −80 mV, n = 9) worked out at 5.75 ± 1.22 pA/pF. Moreover, in data set [3] (100 μM NNK), the “concentration of nicotine at which sign reversal of NNK effect occurs” value is on record as “approximately 400 nM”. The “measured peak current relative to the value in the presence of 300 μM nicotine” value in data set [3] (100 μM NNK, −80 mV, n = 13) was 0.14 ± 0.02. In data set [3] (Equation 3), the “nH of desensitization curve” value is on record as 0.9. Moreover, the inhibition at 100 µM in data set [3] (HEK293, read-out: inhibition of the current elicited by nicotine) was found to be 40%. For the same compound, the “nicotine concentrations whose currents are potentiated by co-applied NNK” value in data set [3] (NNK co-applied with nicotine) is no more than 100 nM. For the same compound, in data set [3] (NNK concentrations up to 100 nM), the “effect on the currents activated by 10 μM nicotine” value is listed as “no effect”. Besides, the “voltage dependence of the fractional block at the steady state” value in data set [3] was “independent of the applied Vm”. The “nH, Hill coefficient of single-term Hill fit (Equation 1)” value in data set [3] (activation by agonist alone, −80 mV) is 0.44. Also, the “nH of inhibition curve” value in data set [3] (currents activated by 10 μM nicotine, Equation 3) stood at 0.95. The “fit parameters αNIC / αNNK of Equation 4” value in data set [3] (fit of data with 1 μM NNK plus nicotine (Figure 5C)) was 5 µM. In addition, the “estimated maximal current activated by NNK, % of the current elicited by 300 μM nicotine” value in data set [3] (from Equation 1 fit, −80 mV) is on record as “approximately 16%”. The Imax/Inico in data set [3] (−80 mV) amounted to 0.16. In addition, the “functional behaviour on α4β2 nAChRs” value in data set [3] is recorded as “partial agonist”. Moreover, the IC50 is 1700 nM in data set [3] (read-out: Desensitization IC50, fractional steady state current ISS/Ipeak vs agonist concentration, Equation 3) and greater than 100000 nM in data set [3] (read-out: Inhibition IC50, with 10 μM nicotine, steady state fractional current, −80 mV). The “Hill coefficient of the high-affinity component (nH1 in Table 1)” value in data set [3] (setting [7]) is reported as 1.2. For the same compound, the “Hill coefficient of the low-affinity component (nH2 in Table 1)” value in data set [3] (setting [7]) stood at 1.4. Further, in data set [3] (−80 mV, NNK alone), the “NNK concentrations that elicited inward currents” value was “higher than 10 nM”.
For the compound `O=NN1CCC[C@H]1c1cccnc1` [NNN, N'-nitrosonornicotine], the IC50 is 1.14 mM in data set [4]; roughly 1 nM in data set [3] (read-out: Inhibition IC50); 0.21 nM in data set [3] (with 10 μM nicotine, steady state fractional current, −80 mV, read-out: Inhibition IC50). In data set [3], the “voltage dependence of the fractional block at the steady state” value is “independent of the applied Vm”. For the same compound, in data set [3] (−80 mV), the Imax/Inico worked out at 0. For the same compound, the “functional behaviour on α4β2 nAChRs” value in data set [3] is “pure inhibitor”. For the same compound, the “nAChR activation (whole-cell current) by the compound alone” value in data set [3] (−80 mV, NNN 10 μM and up to 100 μM) was “never produced nAChR activation; also recorded: did not elicit any whole-cell current”. In data set [5], the “effect on the muscle subtype” value was “little effect”. In addition, the “concentrations normally encountered in smokers' plasma” value in data set [6] (ref Schuller, [2007]) was less than 100 pM.
Turning to `CN1CCC[C@H]1c1cccnc1` [Nicotine, nicotine, reference compound], in data set [1], the EC50 was […]. In addition, in data set [3], the average current came out at 89.4 ± 19.4 pA, the “nH of nicotine alone (Figure 4C)” value is reported as 0.83, the “nH of nicotine in the presence of 1 nM NNN” value is 0.92 and the “nH of nicotine in the presence of 1 μM NNN” value stood at […]. This compound displayed a peak current in data set [3] of 119 ± 24 pA. For the same compound, the “plasma nicotine concentration immediately after smoking” value in data set [6] (smokers, ref Schaal and Chellappan, [2014]) is […].
